What all share (assay): Kirby-Bauer disk diffusion susceptibility test
Assay [1] deals with S. epidermidis. The class given is cell-based. The method, then: (§1) Bacterial strains, from clinical origin, were supplied by the National Center for Microbiology, Institute of Health Carlos III (Majadahonda, Madrid). They are detailed in Table I.
(§2) Bacterial cells suspension in sterile saline was prepared from a culture of 24-72 h, depending on bacterial species, in Mueller-Hinton Agar with 5% sheep blood. Each suspension was adjusted to a fixed size inoculum of 1-5×10^8 CFU/ml with a spectrophotometer (Ferraro, M J National Committee for Clinical Laboratory Standards. 2000).
(§3) Kirby-Bauer disk diffusion susceptibility test protocol was utilized to determine the sensitivity or resistance of pathogenic bacteria against the compounds and others antibiotics. The absence of growth around the disks is an indirect measure of the ability of this compound to inhibit an organism (Kirby, W. et al., Antibiotics Annu. 1956-1957:892). After 18 to 72 hours of incubation at […], with or without CO2, under aerobic or anaerobic conditions, depending on the bacterial species, halo of growth inhibition were obtained and evaluated.
(§4) Interpretation of susceptibility and resistance was based on the presence or absence of a zone of inhibition surrounding the disk. Kirby-Bauer disk diffusion susceptibility test is a common method which uses antibiotic-impregnated wafers to test whether bacteria are affected by antibiotics. The size of the zone of inhibition depends on how effective the antibiotic is at stopping the growth of the bacterium. A stronger antibiotic will create a larger zone, because a lower concentration of the antibiotic is enough to stop growth.

In assay [2] the test system is S. aureus. The class given is cell-based. Here is the method:
as §1, §2, §3, §4

The subject of assay [3] is B. cereus. Type of assay: cell-based, Bacillus cereus. Here is the method: as §1, §2, §3, §4
Assay [4] concerns E. faecalis. The class given is cell-based. The method, then: as §1, §2, §3, §4
Assay [5] deals with E. faecium. Type of assay: cell-based. Here is the method: as §1, §2, §3, §4
For assay [6], the system named is E. coli. Type of assay: cell-based. Here is the method: as §1, §2, §3, §4
Assay [7] deals with N. cyriacigeorgica. The class given is cell-based. Here is the method: as §1, §2, §3, §4
Assay [8] relates to N. carnea. The class given is cell-based, Nocardia carnea. Here is the method: as §1, §2, §3, §4
Assay [9] deals with T. pulmonis. The class given is cell-based, Tsukamurella pulmonis. Here is the method: as §1, §2, §3, §4
[10] abbreviates: S. epidermidis strain 188, isolation year 2009.
Where [11] appears, read: S. epidermidis strain 982, isolation year 2006.
[12] abbreviates: S. aureus strain 282, isolation year 2005.
[13] abbreviates: S. aureus strain 890, isolation year 2010.
The mark [14] stands for this setting: B. cereus strain 25, isolation year 2014.
Setting [15] is: B. cereus strain 182, isolation year 2013.
[16] abbreviates: E. faecalis strain 52, isolation year 2006.
Setting [17] is: E. faecalis strain 1052, isolation year 2008.
The mark [18] stands for this setting: E. faecium strain 26, isolation year 2012.
[19] abbreviates: E. faecium strain 209, isolation year 2015.
[20] abbreviates: E. coli strain 29, isolation year 2012.
Where [21] appears, read: E. coli strain 305, isolation year 2008.
Further: key: I = intermediate activity; S = susceptibility; R = Resistance.

Regarding `CN(C)[C@@H]1C(O)=C(C(N)=O)C(=O)[C@@]2(O)C(O)=C3C(=O)c4c(O)cccc4[C@@](C)(O)[C@H]3C[C@@H]12` [TET, Tetracycline], the “Sensitivity or resistance of the strain to the antibiotic” value (“Sensitivity or resistance of the strain” for short) is listed as “S” in assay [1] (setting [10]); “S” in [1] (setting [11]); “S” in assay [2] (setting [12]); “R” in assay [2] (setting [13]); “R” in assay [3] (setting [14]); “S” in assay [3] (setting [15]).
`CN[C@H](CC(C)C)C(=O)N[C@H]1C(=O)N[C@@H](CC(N)=O)C(=O)N[C@H]2C(=O)N[C@H]3C(=O)N[C@H](C(=O)N[C@H](C(=O)O)c4cc(O)cc(O)c4-c4cc3ccc4O)[C@H](O)c3ccc(c(Cl)c3)Oc3cc2cc(c3O[C@@H]2O[C@H](CO)[C@@H](O)[C@H](O)[C@H]2O[C@H]2C[C@](C)(N)[C@H](O)[C@H](C)O2)Oc2ccc(cc2Cl)[C@H]1O` [VAN, Vancomycin]: the “Sensitivity or resistance of the strain” value in assay [4] (setting [16]) is listed as “S”; in assay [4] (setting [17]), “S”; in [5] (setting [18]), “I”; in assay [5] (setting [19]) it was “S”; in assay [1] (setting [10]) it was “S”; in assay [1] (setting [11]) it was “S”. For the same compound, the “Sensitivity or resistance of the strain” value in assay [2] (setting [12]), in assay [2] (setting [13]), in [3] (setting [14]) and in assay [3] (setting [15]) was “S” each time.
In the case of `CO[C@H]1/C=C/O[C@@]2(C)Oc3c(C)c(O)c4c(O)c(c(/C=N/N5CCN(C)CC5)c(O)c4c3C2=O)NC(=O)/C(C)=C\C=C\[C@H](C)[C@H](O)[C@@H](C)[C@@H](O)[C@@H](C)[C@H](OC(C)=O)[C@@H]1C` [RIF, Rifampicin], the “Sensitivity or resistance of the strain” value in assay [3] (setting [14]) and in [3] (setting [15]) was “S” in each case.
In the case of Gentamicin, the “Sensitivity or resistance of the strain” value in assay [4] (setting [16]) is given as “S”; in [4] (setting [17]) it was “S”; in assay [5] (setting [18]), “S”; in assay [5] (setting [19]), “S”; in assay [1] (setting [10]), “S”; in [1] (setting [11]) it was “R”. Moreover, the “Sensitivity or resistance of the strain” value in assay [6] (setting [20]) was “S”; in [6] (setting [21]), “S”; in [2] (setting [12]), “R”; in assay [2] (setting [13]) it was “R”.
With Amoxicillin/Clavulanate [A/C], the “Sensitivity or resistance of the strain” value in assay [7] (N cyriacigeorgica strain 199, isolation year 2005) is listed as “R”; in assay [7] (N. cyriacigeorgica strain 30, isolation year 2005), “R”; in [6] (setting [20]) it was “S”; in assay [6] (setting [21]), “R”; in assay [8] (N. carnea strain 40, isolation year 2011), “S”; in [8] (N. carnea strain 769, isolation year 2009) it was “S”. The “Sensitivity or resistance of the strain” value is listed as “R” in assay [9] (T. pulmonis strain 40, isolation year 2015) and “S” in [9] (T. pulmonis strain 1991, isolation year 2009).
As to `CCC[C@@H]1C[C@@H](C(=O)N[C@@H]([C@H]2O[C@H](SC)[C@H](O)[C@@H](O)[C@H]2O)[C@H](C)Cl)N(C)C1` [CLI, Clindamycin], the “Sensitivity or resistance of the strain” value is on record as “S” in assay [1] (setting [10]); “R” in [1] (setting [11]); “R” in assay [2] (setting [12]); “R” in [2] (setting [13]); “R” in assay [3] (setting [14]); “R” in assay [3] (setting [15]).

The record behind these values is patent publication US11008295B2, “Compounds having antiinfective, antitumoral and antifungal activity” (priority 2017, dated 2021).
